Laboratory results taken from patent US6939855B2, “Anti-inflammatory compositions and method” (Elan Pharmaceuticals, Inc., priority 1997, dated 2005).

Tested on: human neutrophils
Experiment: Expression of alpha-9 integrin on human neutrophils following activation
Assay type: cell-based
Settings: compared to isotype control marker (FIG. 2)
Experimental: In this experiment, alpha-9 subunit, alpha-4 subunit and beta-1 subunit were measured after reacting human neutrophils with fluorescently labeled antibodies specifically reactive with each of the foregoing subunits.
Formyl-Met-Leu-Phe (fMLP) is an activation factor that is involved in inflammation. […] This increased expression is consistent with alpha-9 involvement in activation of neutrophils during inflammation.

Substance: Formyl-Met-Leu-Phe [fMLP]
- alpha-9 integrin expression following activation: significantly and selectively increased
